Data published in patent publication EP2873675A1, “Peptide-based peroxidase inhibitors and methods of using same” (The Medical College of Wisconsin, Inc., priority 2013, dated 2015).
Entries after “also recorded” stand apart in the source; their conditions may differ. Residues, ends and D or L forms follow the SMILES beside them.

Key:
MPO [1] = experiment: MPO-mediated nitration of bovine serum albumin (western blot); type: biochemical; details: for MPO-mediated BSA nitration: H2O2 100 µM, nitrite 100 µM
Protocol: MPO-mediated Nitration of Bovine Serum Albumin (BSA). BSA (0.5 mg/mL) was incubated with MPO (20 nM), H2O2 (100 µM), nitrite (100 µM) and increasing concentrations of KYC in phosphate buffer (100 mM, pH 7.4) containing DTPA (100 µM) for 30 min. Reactions were stopped by addition of catalase. Nitrotyrosine formation was assessed by western blot analysis.
MPO-mediated Nitration of Bovine Serum Albumin (BSA): BSA (0.5 mg/mL) was incubated with MPO (20 nM), H2O2 (25 µM), NaNO2 (50 µM) and increasing concentrations of KYC in phosphate buffer (100 mM, pH 7.4) containing DTPA (100 µM) for 30 min. Reactions were halted by addition of catalase (2,000 units/mL). NO2Tyr formation was assessed by western blot analysis with an anti-NO2Tyr rabbit polyclonal antibody (EMD, Gibbstown, NJ).

[2] = tested on: facialis arteries from non-treated SCD mice; experiment: Vasodilatation of facialis arteries from untreated SCD mice, treated ex vivo in the vessel bath; details: 1.5 µg/ml added to vessel bath, 20 min
Protocol: For vessels treated with KYC (ex-vivo): Using untreated SCD mice, the vessels were isolated/ cannulated the same as for the mice treated with KYC in vivo. After the control dose-response curve using acetylcholine (ACh, 10^-7 - 10^-4 M) and subsequent washing, the vessels were incubated with KYC 1.5 µg/ml for 20 minutes, pre-constricted, and exposed to acetylcholine (ACh, 10^-7 - 10^-4 M). Vasodilation to papaverine (2.0X10^-4 M) was determined after all treatments to ensure smooth muscle viability. Vasodilation was calculated as a percent of maximal vessel diameter change.

NADPH oxidase (NOX) = experiment: PMA-stimulated HL-60 cell superoxide formation (SOD-inhibitable cytochrome C reduction); type: cell-based, human; details: cytochrome C assay
Protocol: PMA-induced Superoxide Anion Formation. HL-60 cells were cultured in RPMI 1640 medium containing 10 % FCS (passage 20-50). HL-60 cells were harvested by centrifugation (1000 rpm, 10 min), washed 2X with phosphate buffer (10 mM, pH 7.4) with NaCl (138 mM), KCl (2.67 mM), CaCl2 (0.901 mM), MgCl2 (0.493 mM) and glucose (1mg/ml) to remove culture medium. The HL-60 cells (6 x10^6/0.5ml) were re-suspended in DPBS. After stimulation with PMA (10 µM), the HL-60 cells were incubated with cytochrome C (40 µM) with or without superoxide dismutase at 37°C for 30 min. The reaction was stopped by centrifugation. Cytochrome C reduction was measured at 550 nm on a UV-Vis spectrophotometer (Agilent, Model 8453).
PMA-stimulated HL-60 cell O2^•- Formation: HL-60 cells were harvested by centrifugation (1000 rpm, 10 min), washed twice with DPBS with glucose to remove culture medium. The HL-60 cells (1.2 x10^7/ml) were re-suspended in DPBS with glucose. After stimulation with PMA (10 µM), the HL-60 cells were incubated with cytochrome C (40 µM) with or without superoxide dismutase (500 units/mL) at 37 °C for 10 min and then the HL-60 cells were removed by centrifugation. Cytochrome C reduction in supernatants was measured at 550 nm using a UV-Vis spectrophotometer (Agilent, Model 8453).

BAEC = experiment: MPO-mediated BAEC injury (cell morphology); type: cell-based, Bovine; details: 20 min
MPO [3] = experiment: MPO-mediated nitration of LDL (dot blot); type: biochemical; details: MPO/H2O2/NaNO2, 37 °C, 4 h
Protocol: MPO-mediated Nitration of LDL: LDL (0.5 mg/mL) was incubated with MPO (50 nM), H2O2 (50 µM), NaNO2 (50 µM) and increasing concentrations of KYC in phosphate buffer (100 mM, pH 7.4) containing DTPA (100 µM) at 37 °C for 4 h. Reactions were stopped by addition of catalase (2,000 units/mL). Formation of NO2Tyr was assessed by dot blot analysis. Briefly, LDL solutions were mixed with 1% SDS and centrifuged (12000 g, 15 min). Aliquots of supernatants were applied to a nitrocellulose membrane with a dot blot apparatus (Biorad model: Bio-Dot). The levels of NO2Tyr were visualized using a rabbit polyclonal anti-NO2Tyr antibody (EMD, Gibbstown, NJ) and the ECL plus kit from Thermo-Peirce (Rockford, IL).

lung cancer mice = experiment: BHT-treated lung cancer mice (BALF activities, tumor number); type: in vivo; details: BHT 300 mg/kg single dose; 0.3 mg/kg/d; after 3 days
Protocol: Inhibiting MPO decreases PMN degranulation in lung cancer mice. PMNs are considered to play a causal role in initiating tumor formation. Effects of KYC on PMN recruitment and tumor formation in lung cancer mice were determined. Briefly, mice were treated with BHT (single dose: 300 mg/kg) and KYC (0.3 mg/kg/d).

MPO [4] = experiment: MPO-mediated LDL malondialdehyde (MDA) formation; type: biochemical; details: increasing concentrations; LDL 0.5 mg/mL, MPO 50 nM, H2O2 50 µM, NO2 50 µM
Protocol: MPO-mediated LDL Malondialdehyde (MDA) Formation: Reaction mixtures contained LDL (0.5 mg/mL), NaNO2 (50 µM), H2O2 (50 µM), MPO (50 nM) and increasing concentrations of KYC in a phosphate buffer (100 mM, pH 7.4) containing DTPA (100 µM). After incubation at 37 °C for 4 h, the reactions were stopped by addition of catalase (2,000 units/mL). The formation of MDA was determined according to a published procedure. Briefly, incubation mixtures (containing 25 mM BHT) were adjusted to pH 1.5 and incubated at 60 °C for 80 min to hydrolyze the Schiff Bases formed from MDA and protein. The samples were mixed with 3-fold volume of N-methyl-2-phenylindole (13.4 mM in acetonitrile/methanol (3:1)). After centrifugation (13000 g, 5 min) 330 µL of the supernatants were mixed with 57.5 µL of concentrated HCl and incubated at 45 °C for another 60 min. Finally, after centrifugation (13000 g, 5 min), total MDA in the samples was determined from the absorbance at 586 nm using a UV-Vis spectrophotometer (Agilent Model 8453).

CC(=O)N[C@@H](CCCCN)C(=O)N[C@@H](Cc1ccc(O)cc1)C(=O)N[C@@H](CS)C(N)=O [KYC, N-acetyl Lysyltyrosylcysteine amide] (Ac-Lys-Tyr-Cys-NH2)
MPO-mediated BSA nitration (MPO [1]; 30 µM): inhibits | NO2Tyr formation in BSA (MPO [1]; 50 µM, H2O2 25 µM, NaNO2 50 µM): essentially ablated | MPO-mediated BSA nitration (MPO [1]; 250 µM): essentially ablates | vasodilatation in response to ACh [2]: did not increase vasodilatation | O2•- production in PMA-stimulated HL-60 cells (NADPH oxidase (NOX)): neither KYC nor KYC disulfide have any significant effect; also recorded: Neither KYC nor KYC disulfide had any significant effect | protection of BAEC from MPO-induced injury (morphology) (BAEC; 25 µM, higher MPO (5 µg/ml) or H2O2 (100 µM), data not shown): protected BAEC from even higher concentrations of MPO | protection of BAEC from MPO-induced injury (morphology) (BAEC; 50 µM, MPO 2.5 µg/ml, H2O2 50 µM): almost the same morphology as cultures that were not exposed to MPO | NO2Tyr in LDL (MPO [3]): markedly reduces | MPO activity in BALF (lung cancer mice): significantly decreased | PMN number in BALF (lung cancer mice): did not reduce | elastase activity in BALF (lung cancer mice): significantly decreased | MPO-mediated MDA formation in LDL (MPO [4]): dose-dependently inhibited
